± gives the expanded uncertainty stated by the source.
Conditions: 101 kPa, Liquid

Q: For `CCCCCCCCn1cc[n+](C)c1.O=S(=O)([N-]S(=O)(=O)C(F)(F)F)C(F)(F)F`, which mass density (298.15 K) is on record?
A: Its mass density is 1343 ± 11 kg/m3.

Q: And the mass density (308.15 K)?
A: The mass density was 1323 ± 10 kg/m3.

Q: What about the mass density (323.15 K) of the same compound?
A: Its mass density is 1287 ± 10 kg/m3.

Q: Which mass density (298.15 K) does the source give for `CCCCCCCCCCn1cc[n+](C)c1.O=S(=O)([N-]S(=O)(=O)C(F)(F)F)C(F)(F)F` here?
A: Its mass density is 1284 ± 10 kg/m3.

Q: What about the mass density (308.15 K) of the same compound?
A: The mass density was 1256 ± 10 kg/m3.

Q: And the mass density (323.15 K)?
A: Its mass density is 1221 ± 10 kg/m3.

Q: Which results are given for `CCCCCC[n+]1ccn(C)c1.O=S(=O)([N-]S(=O)(=O)C(F)(F)F)C(F)(F)F`?
A: mass density (298.15 K): 1391 ± 11 kg/m3; mass density (308.15 K): 1373 ± 11 kg/m3; mass density (323.15 K): 1340 ± 10 kg/m3

Reference: the NIST ThermoML archive (doi:10.1021/je4001944)
